# Experimental data reported in paper PMC11108860 (Heliyon, 2024).
# Read-outs that look alike come from different tables or passages of the source.
# How the values were obtained:
# [1] = molecular target: T1, OR2AT4 (Homo sapiens, UniProt A6NND4); test: Calcium imaging; format: cell-based; conditions: 0 to 1 mM; OR2AT4-expressing cells
# T1 sequence (A6NND4 1-320): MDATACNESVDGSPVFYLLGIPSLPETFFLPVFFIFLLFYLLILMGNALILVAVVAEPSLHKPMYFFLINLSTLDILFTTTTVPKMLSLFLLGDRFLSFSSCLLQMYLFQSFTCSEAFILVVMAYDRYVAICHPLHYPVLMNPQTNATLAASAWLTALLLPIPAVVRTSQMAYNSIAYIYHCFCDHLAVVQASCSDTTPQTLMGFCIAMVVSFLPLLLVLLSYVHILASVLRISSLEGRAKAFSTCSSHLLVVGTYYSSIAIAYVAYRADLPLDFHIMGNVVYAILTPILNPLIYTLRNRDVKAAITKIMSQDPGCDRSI
# [2] = tested on: K562 cells; test: Calcium imaging; format: cell-based, human
# [3] = tested on: Molt-4 cells; test: Calcium imaging; format: cell-based
# [4] = tested on: K562 cells; test: Cell viability assay; format: cell-based, human; conditions: for IC50: Homo sapiens, read-out: IC50 (cell viability); for cell viability: K562
# [5] = tested on: Molt-4 cells; test: Cell viability assay; format: cell-based; conditions: 24, 48, and 72 h
# [6] = tested on: K562 cells; test: Apoptosis assay; format: cell-based, human; conditions: for percentage of total apoptotic cells: 200 μM
# [7] = tested on: K562 cells; test: Western blotting of proliferation- and apoptosis-related proteins in K562 cells; format: cell-based, human; conditions: for cleaved caspase-3 after inhibitor treatment: Fig. 6B,D, similar to EGCG treatment
# [8] = molecular target: T2, OR2AT4-6xHis protein (Homo sapiens, UniProt A6NND4); test: SPR sensorgrams on immobilized OR2AT4-6xHis, concentration series; format: binding; conditions: 100 μM (Fig. 2A)
# T2 sequence (A6NND4 1-320): T1 sequence (A6NND4 1-320)
# [9] = K562, EGCG 200 μM, 30 min after treatment
# [10] = OR2AT4 siRNA-transfected K562 cells, EGCG treatment
compound,measurement,setting,value
COc1cc2c3cc1Oc1c(OC)c(OC)cc4c1[C@@H](Cc1ccc(O)c(c1)Oc1ccc(cc1)C[C@@H]3N(C)CC2)N(C)CC4 [Berbamine],"intracellular calcium response, dose-response",[1],increased intracellular calcium levels in a concentration-dependent manner
"O=C(O[C@@H]1Cc2c(O)cc(O)cc2O[C@@H]1c1cc(O)c(O)c(O)c1)c1cc(O)c(O)c(O)c1 [EGCG, (−)-epigallocatechin gallate]","intracellular calcium response, dose-response",[1],increased intracellular calcium levels in a concentration-dependent manner
same,intracellular calcium response in K562 cells,[2]; 0.2 mM,elevated the calcium response
same,intracellular calcium response in Molt-4 cells,[3]; 200 μM,no immediate calcium response
same,IC50,"[4]; K562, 48 h",146 µM
same,IC50,"[4]; K562, 72 h",158 µM
same,cell viability,"[4]; 24, 48, and 72 h, 0-500 μM","decreased cell viability in a time- (24, 48, and 72 h) and concentration-dependent manner"
same,concentrations with sudden onset of cell death,[5],above 100 μM
same,"percentage of late apoptotic cells, time course","[6]; 200 μM, 24, 48, and 72 h",increased the percentage of late apoptotic cells in a time-dependent manner
same,percentage of total apoptotic cells,[6]; 24 h,50%
same,percentage of total apoptotic cells,[6]; 48 h,58.03%
same,percentage of total apoptotic cells,[6]; 72 h,64.52%
same,expression of Bax,[7]; K562,no significant difference
same,expression of Bcl-2,[7]; K562,no significant difference
same,"levels of cleaved caspase-3, time course","[7]; K562, 200 μM, 24 and 48 h",increased in a time-dependent manner
same,protein level of phosphor-AKT,[7]; [9],downregulated
same,protein level of phosphor-p38 MARK,[7]; [9],downregulated
same,expression of phosphor-STAT5,"[7]; K562, EGCG 200 μM, starting from 15 min",began to decrease
same,expression levels of cleaved caspase-8,"[7]; K562, time- and concentration-dependent",upregulated
same,caspase-8 in OR2AT4 siRNA-transfected K562 cells,[7]; [10],significantly reduced
same,cleaved caspase-3 in OR2AT4 siRNA-transfected K562 cells,[7]; [10],significantly reduced
"CCCCCCCCCCCCCCCCCCOP(=O)([O-])OC1CC[N+](C)(C)CC1 [Perifosine, reference compound]",p-Akt,"[7]; K562, Fig. 6A",downregulation
same,cleaved caspase-3 after inhibitor treatment,[7]; K562,upregulation
"C[S+]([O-])c1ccc(-c2nc(-c3ccncc3)c(-c3ccc(F)cc3)[nH]2)cc1 (stereo not drawn) [SB203580, reference compound]",cleaved caspase-3 after inhibitor treatment,[7]; K562,upregulation
same,p-p38 MAPK,"[7]; K562, Fig. 6C",downregulation
"CC1=CCC(CCC(C)C(C)O)C1(C)C (stereo not drawn) [Sandalore, reference compound]",reactivity with OR2AT4 recombinant protein (SPR),[8],confirming the reactivity
same,"intracellular calcium response, dose-response",[1],increased calcium response in a concentration-dependent manner
same,intracellular calcium response in K562 cells,[2]; 2 mM,increased intracellular Ca^2+ levels
same,intracellular calcium response in Molt-4 cells,[3]; 2 mM,no immediate calcium response
same,cell viability,[4]; Fig. S2,decreased cell viability in a concentration-dependent manner
